# Experimental data as given in ChEMBL document CHEMBL5247667, “Design, synthesis and characterizations of prodrugs of brexanolone” (Bioorg Med Chem Lett, 2023).
# How the values were obtained:
# [1] = Metabolic stability in beagle dog plasma assessed as half life at 1 uM incubated for 60 min by LC-MS/MS method; type: ADME, cell-free, Canis lupus familiaris
# [2] = Metabolic stability in beagle dog liver S9 fraction assessed as half life at 1 uM incubated for 60 min by LC-MS/MS method; type: ADME, subcellular, Canis lupus familiaris
# [3] = Metabolic stability in human liver S9 fraction assessed as half life at 1 uM incubated for 60 min by LC-MS/MS method; type: ADME, subcellular
# [4] = Metabolic stability in Sprague-Dawley rat plasma assessed as half life at 1 uM incubated for 60 min by LC-MS/MS method; type: ADME, cell-free
# [5] = Metabolic stability in Sprague-Dawley rat liver S9 fraction assessed as half life at 1 uM incubated for 60 min by LC-MS/MS method; type: ADME, subcellular
# [6] = Metabolic stability in human plasma assessed as half life at 1 uM incubated for 60 min by LC-MS/MS method; type: ADME, cell-free
# [7] = Half life in Sprague-Dawley rat assessed as BXN at 1 mg/kg, IV administered for 30 mins measured after 24 hrs post dose by LC-MS/MS analysis; type: ADME, organism-based; settings: in vivo, 24.5 h
# [8] = Cmax in Sprague-Dawley rat assessed as BXN at 5 mg/kg, IM administered for 30 mins measured after 24 hrs post dose by LC-MS/MS analysis; type: ADME, organism-based; parameters: time 24.5 hrs, dose 5 mg/kg, route im; settings: in vivo, 24.5 h
# [9] = Half life in Sprague-Dawley rat assessed as BXN at 5 mg/kg, IM administered for 30 mins measured after 24 hrs post dose by LC-MS/MS analysis; type: ADME, organism-based; settings: in vivo, 24.5 h
# [10] = Cmax in beagle dog at 1 mg/kg, IV administered for 30 mins measured after 24 hrs post dose by LC-MS/MS analysis; type: ADME, organism-based, Canis lupus familiaris; parameters: time 24.5 hrs, dose 1 mg/kg, route iv; settings: in vivo
# [11] = Cmax in beagle dog assessed as BXN at 5 mg/kg, IM administered for 30 mins measured after 24 hrs post dose by LC-MS/MS analysis; type: ADME, organism-based, Canis lupus familiaris; parameters: time 24.5 hrs, dose 5 mg/kg, route im; settings: in vivo, 24.5 h
# [12] = Half life in beagle dog assessed as BXN at 5 mg/kg, IM administered for 30 mins measured after 24 hrs post dose by LC-MS/MS analysis; type: ADME, organism-based, Canis lupus familiaris; settings: in vivo, 24.5 h
# [13] = Cmax in Sprague-Dawley rat at 1 mg/kg, IV administered for 30 mins measured after 24 hrs post dose by LC-MS/MS analysis; type: ADME, organism-based; parameters: time 24.5 hrs, dose 1 mg/kg, route iv; settings: in vivo
# [14] = Prodrug conversion in Sprague-Dawley rat assessed as ratio of AUC for compound to BXN at 1 mg/kg,IV and measured after 60 mins by LC-MS/MS analysis; type: ADME, organism-based; settings: in vivo, 1 h
# [15] = Prodrug conversion in Sprague-Dawley rat assessed as ratio of AUC for compound to BXN at 5 mg/kg,IM and measured after 60 mins by LC-MS/MS analysis; type: ADME, organism-based; settings: in vivo, 1 h
# [16] = AUClast in beagle dog assessed as BXN at 5 mg/kg, IM administered for 30 mins measured after 24 hrs post dose by LC-MS/MS analysis; type: ADME, organism-based, Canis lupus familiaris; parameters: time 24.5 hrs, dose 5 mg/kg, route im; settings: in vivo, 24.5 h
# [17] = Clearance in Sprague-Dawley rat at 1 mg/kg, IV administered for 30 mins measured after 24 hrs post dose by LC-MS/MS analysis; type: ADME, organism-based; settings: in vivo, time 24.5 hrs
# [18] = Prodrug conversion in beagle dog assessed as ratio of AUC for compound to BXN at 5 mg/kg,IM and measured after 60 mins by LC-MS/MS analysis; type: ADME, organism-based, Canis lupus familiaris; settings: in vivo, 1 h
# [19] = AUClast in beagle dog assessed as BXN at 1 mg/kg, IV administered for 30 mins measured after 24 hrs post dose by LC-MS/MS analysis; type: ADME, organism-based, Canis lupus familiaris; parameters: dose 1 mg/kg, time 24.5 hrs, route iv; settings: in vivo, 24.5 h
# [20] = AUClast in Sprague-Dawley rat assessed as BXN at 5 mg/kg, IM administered for 30 mins measured after 24 hrs post dose by LC-MS/MS analysis; type: ADME, organism-based; parameters: time 24.5 hrs, dose 5 mg/kg, route im; settings: in vivo, 24.5 h
# [21] = AUClast in Sprague-Dawley rat assessed as BXN at 1 mg/kg, IV administered for 30 mins measured after 24 hrs post dose by LC-MS/MS analysis; type: ADME, organism-based; parameters: dose 1 mg/kg, time 24.5 hrs, route iv; settings: in vivo, 24.5 h
# [22] = Prodrug conversion in beagle dog assessed as ratio of AUC for compound to BXN at 1 mg/kg,IV and measured after 60 mins by LC-MS/MS analysis; type: ADME, organism-based, Canis lupus familiaris; settings: in vivo, 1 h
# [23] = AUClast in beagle dog at 1 mg/kg, IV administered for 30 mins measured after 24 hrs post dose by LC-MS/MS analysis; type: ADME, organism-based, Canis lupus familiaris; parameters: time 24.5 hrs, dose 1 mg/kg, route iv; settings: in vivo
# [24] = Half life in Sprague-Dawley rat at 1 mg/kg, IV administered for 30 mins measured after 24 hrs post dose by LC-MS/MS analysis; type: ADME, organism-based; settings: in vivo, time 24.5 hrs
# [25] = Half life in beagle dog assessed as BXN at 1 mg/kg, IV administered for 30 mins measured after 24 hrs post dose by LC-MS/MS analysis; type: ADME, organism-based, Canis lupus familiaris; settings: in vivo, 24.5 h
# [26] = AUClast in Sprague-Dawley rat at 1 mg/kg, IV administered for 30 mins measured after 24 hrs post dose by LC-MS/MS analysis; type: ADME, organism-based; parameters: dose 1 mg/kg, time 24.5 hrs, route iv; settings: in vivo
# [27] = Cmax in beagle dog assessed as BXN at 1 mg/kg, IV administered for 30 mins measured after 24 hrs post dose by LC-MS/MS analysis; type: ADME, organism-based, Canis lupus familiaris; parameters: dose 1 mg/kg, time 24.5 hrs, route iv; settings: in vivo, 24.5 h
# [28] = Cmax in Sprague-Dawley rat assessed as BXN at 1 mg/kg, IV administered for 30 mins measured after 24 hrs post dose by LC-MS/MS analysis; type: ADME, organism-based; parameters: time 24.5 hrs, dose 1 mg/kg, route iv; settings: in vivo, 24.5 h
compound,measurement,setting,value
CC(=O)[C@H]1CC[C@H]2[C@@H]3CC[C@H]4C[C@H](OC(=O)CCCOC(=O)C(C)C)CC[C@]4(C)[C@H]3CC[C@]12C,half-life at 1 µM,[1],233 min
same,half-life at 1 µM,[2],1.9 min
same,half-life at 1 µM,[3],1.2 min
same,half-life at 1 µM,[4],1.2 min
same,half-life at 1 µM,[5],1.1 min
same,half-life at 1 µM,[6],140 min
CC(=O)[C@H]1CC[C@H]2[C@@H]3CC[C@H]4C[C@H](OC(=O)NCCOC(=O)C(C)C)CC[C@]4(C)[C@H]3CC[C@]12C,half-life at 1 µM,[3],0.6 min
same,half-life at 1 µM,[6],289 min
CC(=O)OCCCC(=O)O[C@@H]1CC[C@@]2(C)[C@@H](CC[C@@H]3[C@@H]2CC[C@]2(C)[C@@H](C(C)=O)CC[C@@H]32)C1,half-life at 1 µM,[1],138 min
same,half-life at 1 µM,[3],0.9 min
same,half-life at 1 µM,[4],1.6 min
same,half-life at 1 µM,[6],176 min
CC(=O)OCCCC(C)C(=O)O[C@@H]1CC[C@@]2(C)[C@@H](CC[C@@H]3[C@@H]2CC[C@]2(C)[C@@H](C(C)=O)CC[C@@H]32)C1 (some centres not stated),half-life at 1 µM,[1],233 min
same,half-life at 1 µM,[2],1 min
same,half-life at 1 µM,[3],0.9 min
same,half-life at 1 µM,[6],145 min
CC(=O)[C@H]1CC[C@H]2[C@@H]3CC[C@H]4C[C@H](OC(=O)OCc5oc(=O)oc5C)CC[C@]4(C)[C@H]3CC[C@]12C,half-life at 1 µM,[1],30 min
same,t1/2,[7],1900 min
same,half-life at 1 µM,[2],2.3 min
same,Cmax,[8],23.4 ng/mL
same,t1/2,[9],1730 min
same,Cmax,[10],151 ng/mL
same,half-life at 1 µM,[3],1.2 min
same,Cmax,[11],26.6 ng/mL
same,t1/2,[12],618 min
same,Cmax,[13],103 ng/mL
same,Ratio AUC,[14],> 253
same,Ratio AUC,[15],2.9
same,AUClast,[16],122 ng·h/mL
same,clearance,[17],440 mL/min/kg
same,Ratio AUC,[18],> 122
same,half-life at 1 µM,[4],< 2 min
same,AUClast,[19],148 ng·h/mL
same,AUClast,[20],253 ng·h/mL
same,AUClast,[21],113 ng·h/mL
same,Ratio AUC,[22],2.4
same,AUC(0-t) at 24.5 h,[23],62.6 ng·h/mL
same,half-life,[24],17 min
same,t1/2,[25],28.4 min
same,AUC(0-t) at 24.5 h,[26],38.6 ng·h/mL
same,Cmax,[27],241 ng/mL
same,Cmax,[28],107 ng/mL
same,half-life at 1 µM,[6],40 min
CC(=O)[C@H]1CC[C@H]2[C@@H]3CC[C@H]4C[C@H](OC(=O)CC5CCCC5)CC[C@]4(C)[C@H]3CC[C@]12C,half-life at 1 µM,[3],25 min
same,half-life at 1 µM,[6],300 min
CC(=O)[C@H]1CC[C@H]2[C@@H]3CC[C@H]4C[C@H](OC(=O)OCCN(C)C(=O)C(C)C)CC[C@]4(C)[C@H]3CC[C@]12C,half-life at 1 µM,[3],4.3 min
same,half-life at 1 µM,[6],289 min
